Measurements as given in ChEMBL document CHEMBL1201862, “PubChem BioAssay data set” (2004).
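Growth conditions: 96-well plates. Treatment: test compound, 48 hours, 5 concentrations. Analysis: linear interpolation between bracketing concentrations; unreached endpoints set to highest concentration. At the GI50, growth is halved.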 Activity calls are given as the source filed them. No stated cut-off is given here; in the data, active = GI50 up to about 1.1 µM and inactive = higher.

How the values were obtained:
Assay in all cases: NCI anticancer screen, dose series, 48 h
[1] = test system: SW-620
[2] = test system: HCT-15
[3] = test system: OVCAR-4
[4] = test system: NCI-H522
[5] = test system: SN12C
[6] = test system: Malme-3M
[7] = test system: KM12
[8] = test system: IGROV-1
[9] = test system: SK-MEL-2
[10] = test system: HOP-62
[11] = test system: TK-10
[12] = test system: K562
[13] = test system: SF-268
[14] = test system: OVCAR-8
[15] = test system: COLO 205
[16] = test system: UACC-62
[17] = test system: SK-OV-3
[18] = test system: SK-MEL-5
[19] = test system: UACC-257
[20] = test system: SNB-75

SMILES	GI50 [1]	GI50 [2]	GI50 [3]	GI50 [4]	GI50 [5]	GI50 [6]	GI50 [7]	GI50 [8]	GI50 [9]	GI50 [10]	GI50 [11]	GI50 [12]	GI50 [13]	GI50 [14]	GI50 [15]	GI50 [16]	GI50 [17]	GI50 [18]	GI50 [19]	GI50 [20]
CCN(CC)C(=O)c1cc(OC(C)C)ccc1-c1c(C)cc(OC(C)C)c(OC)c1OC	98.4 µM (inactive)	46.9 µM	47.5 µM (inactive)	40 µM (inactive)	61.4 µM (inactive)	44 µM (inactive)	57.8 µM (inactive)	> 100 µM (inactive)	46.7 µM (inactive)	> 100 µM (inactive)	> 100 µM (inactive)	44.2 µM (inactive)	> 100 µM (inactive)	58.5 µM (inactive)	63.7 µM (inactive)	51.8 µM (inactive)	> 100 µM (inactive)	35.6 µM (inactive)		
O=C1CCC(c2ccccc2)=NN1c1nsc2ccccc12	> 100 µM (inactive)	> 100 µM	> 100 µM (inactive)		> 100 µM (inactive)		> 100 µM (inactive)	97.9 µM (inactive)	> 100 µM (inactive)	> 100 µM (inactive)	> 100 µM (inactive)	74 µM (inactive)	> 100 µM (inactive)	> 100 µM (inactive)	> 100 µM (inactive)	> 100 µM (inactive)		> 100 µM (inactive)	> 100 µM (inactive)	7.21 µM (inactive)
Clc1ccc(-c2nnc(-c3nsc4ccccc34)o2)cc1	50.5 µM (inactive)	47.8 µM	14.2 µM (inactive)		36.6 µM (inactive)		51.5 µM (inactive)	18.5 µM (inactive)	28.5 µM (inactive)	13.8 µM (inactive)	25.2 µM (inactive)		18.5 µM (inactive)	25.1 µM (inactive)	71.8 µM (inactive)	54 µM (inactive)		31.3 µM (inactive)	> 100 µM (inactive)	8.17 µM (inactive)
CC(=O)[C@H]1CCC2[C@@H]3CC=C4C(O)C(OS(=O)(=O)O)CC[C@]4(C)C3CC[C@@]21C (some centres undefined)	> 100 µM (inactive)	> 100 µM	> 100 µM (inactive)	> 100 µM (inactive)	> 100 µM (inactive)	> 100 µM (inactive)	> 100 µM (inactive)	> 100 µM (inactive)	> 100 µM (inactive)	> 100 µM (inactive)		> 100 µM (inactive)	> 100 µM (inactive)	> 100 µM (inactive)	> 100 µM (inactive)	> 100 µM (inactive)	> 100 µM (inactive)	> 100 µM (inactive)		> 100 µM (inactive)
NC1CCCCC1	419 µM (inactive)	470 µM	265 µM (inactive)	344 µM (inactive)	> 562 µM (inactive)	> 562 µM (inactive)	211 µM (inactive)	317 µM (inactive)	169 µM (inactive)	223 µM (inactive)		138 µM (inactive)	508 µM (inactive)	397 µM (inactive)	> 56.2 µM (inactive)	255 µM (inactive)		283 µM (inactive)	> 562 µM (inactive)	264 µM (inactive)
O=C(NC1C/C(=N/O)c2c(Br)sc(Br)c21)C(F)(F)F (centres undefined)	30.2 µM (inactive)	24.8 µM	13.8 µM (inactive)	26.1 µM (inactive)	21.2 µM (inactive)	45.9 µM (inactive)	45 µM (inactive)	94 µM (inactive)	11.4 µM (inactive)		36.3 µM (inactive)	20 µM (inactive)	23.6 µM (inactive)	20.7 µM (inactive)	51.8 µM (inactive)	16.9 µM (inactive)	47.6 µM (inactive)	19.6 µM (inactive)	22.9 µM (inactive)	29.5 µM (inactive)
O=C1CN2C(Cl)(Cl)C2(c2ccccc2)c2cc(Cl)ccc2N1CC1CC1 (centres undefined)	29.6 µM (inactive)	19.3 µM	30.3 µM (inactive)	17.2 µM (inactive)	20.8 µM (inactive)	17.3 µM (inactive)	16.6 µM (inactive)		17.3 µM (inactive)	23.4 µM (inactive)	33.8 µM (inactive)	31.5 µM (inactive)	29.3 µM (inactive)	14.6 µM (inactive)	19.9 µM (inactive)			20.2 µM (inactive)	18.9 µM (inactive)	25.2 µM (inactive)
CC(SC(=S)N1CCOCC1)C(=O)Nc1nnc(-c2ccc(Cl)cc2)o1 (centres undefined)	42.6 µM (inactive)	20.7 µM	26.7 µM (inactive)		36.1 µM (inactive)	> 100 µM (inactive)		33.8 µM (inactive)	31.8 µM (inactive)	52 µM (inactive)	79.8 µM (inactive)		44.3 µM (inactive)	42.2 µM (inactive)	38.4 µM (inactive)	50.6 µM (inactive)	67.3 µM (inactive)	31.6 µM (inactive)	46.1 µM (inactive)	> 100 µM (inactive)
O=c1ccc2cc3ccc4cccc5ccc(c2o1)c3c45	31.8 µM (inactive)	> 100 µM		25.9 µM (inactive)	25 µM (inactive)	> 100 µM (inactive)		> 100 µM (inactive)	> 100 µM (inactive)		> 100 µM (inactive)	> 100 µM (inactive)	28.8 µM (inactive)	23.2 µM (inactive)	> 100 µM (inactive)	47 µM (inactive)	13.6 µM (inactive)	40.4 µM (inactive)		24.7 µM (inactive)
CO[C@H]1C=C[C@@]23c4cc5c(cc4CO[C@]2(O)CN(C)[C@H]3C1)OCO5	> 100 µM (inactive)	> 100 µM	> 100 µM (inactive)	> 100 µM (inactive)	> 100 µM (inactive)	> 100 µM (inactive)	> 100 µM (inactive)	> 100 µM (inactive)	> 100 µM (inactive)		> 100 µM (inactive)	> 100 µM (inactive)	> 100 µM (inactive)	> 100 µM (inactive)	> 100 µM (inactive)	> 100 µM (inactive)	> 100 µM (inactive)	> 100 µM (inactive)	> 100 µM (inactive)	> 100 µM (inactive)
NC(Cc1c[nH]c2ccccc12)C(=O)O (stereo not drawn) [DL-TRYPTOPHAN]	> 300 µM (inactive)	64.6 µM	> 300 µM (inactive)	> 300 µM (inactive)	3.74 µM (inactive)	> 300 µM (inactive)	> 300 µM (inactive)	> 300 µM (inactive)	> 300 µM (inactive)	> 300 µM (inactive)		204 µM (inactive)	> 300 µM (inactive)	231 µM (inactive)	> 300 µM (inactive)	> 300 µM (inactive)	> 300 µM (inactive)	> 300 µM (inactive)	> 300 µM (inactive)	> 300 µM (inactive)
COc1cc([C@@H]2c3cc4c(cc3[C@@H](c3c(O)cc(O)c5c3O[C@H](c3ccc(O)c(O)c3)[C@@H](O)C5)[C@H]3COC(=O)[C@H]23)OCO4)cc(OC)c1O	58.9 µM (inactive)	> 100 µM	> 100 µM (inactive)	43.6 µM (inactive)	> 100 µM (inactive)	> 100 µM (inactive)	> 100 µM (inactive)	> 100 µM (inactive)	> 100 µM (inactive)	> 100 µM (inactive)	> 100 µM (inactive)	31.7 µM (inactive)	> 100 µM (inactive)	> 100 µM (inactive)	> 100 µM (inactive)	> 100 µM (inactive)	> 100 µM (inactive)	46.7 µM (inactive)	> 100 µM (inactive)	
CC(C)OP(=O)(OC(C)C)c1nn(-c2ccc([N+](=O)[O-])cc2)c(=N)s1	> 100 µM (inactive)	> 100 µM	> 100 µM (inactive)	47.2 µM (inactive)	> 100 µM (inactive)	> 100 µM (inactive)	> 100 µM (inactive)	> 100 µM (inactive)		> 100 µM (inactive)	> 100 µM (inactive)	61.8 µM (inactive)	> 100 µM (inactive)	> 100 µM (inactive)	> 100 µM (inactive)	> 100 µM (inactive)	> 100 µM (inactive)	69.5 µM (inactive)	38.1 µM (inactive)	15 µM (inactive)
O=C1C=CC=C/C1=C1/SC(c2ccccc2)=C(O)N1c1ccccc1	> 100 µM (inactive)	> 100 µM	> 100 µM (inactive)	> 100 µM (inactive)	> 100 µM (inactive)	> 100 µM (inactive)	> 100 µM (inactive)	> 100 µM (inactive)	> 100 µM (inactive)		> 100 µM (inactive)		> 100 µM (inactive)	> 100 µM (inactive)	> 100 µM (inactive)	> 100 µM (inactive)	> 100 µM (inactive)	> 100 µM (inactive)	> 100 µM (inactive)	> 100 µM (inactive)
COc1ccc(C2N(NC(=O)c3ccncc3)C(=O)CS2(=O)=O)cc1F (centres undefined)	> 100 µM (inactive)	> 100 µM	> 100 µM (inactive)	92.3 µM (inactive)	> 100 µM (inactive)	> 100 µM (inactive)	> 100 µM (inactive)		> 100 µM (inactive)	> 100 µM (inactive)	> 100 µM (inactive)		> 100 µM (inactive)		> 100 µM (inactive)		> 100 µM (inactive)	> 100 µM (inactive)	> 100 µM (inactive)	37.6 µM (inactive)
COC1OC(CS(=O)(=O)O)C(O)C(O)C1O (centres undefined)	> 100 µM (inactive)	> 100 µM	> 100 µM (inactive)		> 100 µM (inactive)	> 100 µM (inactive)	> 100 µM (inactive)	> 100 µM (inactive)	> 100 µM (inactive)	> 100 µM (inactive)	> 100 µM (inactive)	> 100 µM (inactive)		> 100 µM (inactive)	> 100 µM (inactive)	> 100 µM (inactive)	> 100 µM (inactive)	> 100 µM (inactive)	> 100 µM (inactive)	> 100 µM (inactive)
